Data taken from patent US8288375B2, “Fungicidal bicyclic pyrazoles” (E.I. du Pont de Nemours and Company, priority 2007, dated 2012).

Key:
Format in all cases: in vivo
[1] = test system: Fusarium graminearum; experiment: whole plant or invertebrate; conditions: 200 ppm test suspension
[2] = test system: Pythium aphanidermatum; experiment: Test L: bluegrass pythium blight, test suspension sprayed on bluegrass seedlings, disease rating; conditions: 200 ppm test suspension;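 note: 200 ppm unless marked * meaning 40 ppm or ** meaning 10 ppm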
[3] = test system: Puccinia recondite f sp. tritici; experiment: Test B: wheat leaf rust, test suspension sprayed on wheat seedlings, disease rating; conditions: 200 ppm test suspension;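 note: 200 ppm unless marked * meaning 40 ppm or ** meaning 10 ppm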
[4] = test system: Erysiphe graminis f. sp. tritici; experiment: Test A: wheat powdery mildew, test suspension sprayed on wheat seedlings, disease rating; conditions: 200 ppm test suspension; 100 = 100% disease control, 0 = no control
[5] = test system: Botrytis cinerea; experiment: Test H: tomato Botrytis, test suspension sprayed on tomato seedlings, disease rating; conditions: 200 ppm test suspension
[6] = test system: Septoria nodorum; experiment: Test D: wheat glume blotch, test suspension sprayed on wheat seedlings, disease rating; conditions: 200 ppm test suspension
[7] = test system: Sclerotinia sclerotiorum; experiment: Test M: cucumber white mold, test suspension sprayed on cucumber seedlings, disease rating; conditions: 200 ppm test suspension
Excerpt: General protocol for preparing test suspensions for Tests A-M: The test compounds were first dissolved in acetone in an amount equal to 3% of the final volume and then suspended at the desired concentration (in ppm) in acetone and purified water (50/50 mix) containing 250 ppm of the surfactant Trem® 014 (polyhydric alcohol esters). The resulting test suspensions were then used in Tests A-M. Spraying a 200 ppm test suspension to the point of run-off on the test plants was the equivalent of an application rate of 500 g/ha.
The test suspension was sprayed to the point of run-off on cucumber seedlings. The following day the seedlings were inoculated with a spore suspension of Sclerotinia sclerotiorum (the causal agent of cucumber white mold) and incubated in saturated atmosphere at 24° C. for 72 h, and then moved to a growth chamber at 24° C. for 3 additional days, after which time disease ratings were made.
Results for Tests A-M are given in Table A. In the table, a rating of 100 indicates 100% disease control and a rating of 0 indicates no disease control (relative to the controls). A dash (-) indicates no test results. All results are for 200 ppm test suspension except where followed by “*” which indicates 40 ppm or by “**” which indicates 10 ppm.

[8] = test system: Colletotrichum orbiculare; experiment: Test F: cucumber Colletotrichum anthracnose, test suspension sprayed on cucumber seedlings, disease rating; conditions: 200 ppm test suspension
[9] = test system: Phytophthora infestans; experiment: whole plant or invertebrate; conditions: 200 ppm test suspension
[10] = test system: Rhizoctonia oryzae; experiment: Test I: turf brown patch, test suspension sprayed on creeping bent grass seedlings, disease rating; conditions: 200 ppm test suspension
[11] = test system: Septoria tritici; experiment: Test E: wheat leaf blotch, test suspension sprayed on wheat seedlings, disease rating; conditions: 200 ppm test suspension;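 note: 200 ppm unless marked * meaning 40 ppm or ** meaning 10 ppm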
[12] = test system: Plasmopara viticola; experiment: Test K: grape downy mildew, grape seedlings inoculated and then sprayed, disease rating; conditions: 200 ppm test suspension

SMILES	Test C disease control rating [1]	Test L disease control rating [2]	Test B disease control rating [3]	Test A disease control rating [4]	Test H disease control rating [5]	Test D disease control rating [6]	Test M disease control rating [7]	Test F disease control rating [8]	Test J disease control rating [9]	Test I disease control rating [10]	Test E disease control rating [11]	Test K disease control rating [12]
COCC(C)Nc1nccc(-c2c(-c3ccc(F)cc3)nn3c2CCCC3)n1 (centres unmarked) [compound 1]	100%	100%	100%	94%	91%	98%	99%	96%	100%	41%	98%	0%
CCC(C)Nc1nccc(-c2c(-c3ccc(F)cc3)nn3c2CCCC3)n1 (centres unmarked) [compound 2]	–	100%	98%	0%	92%	98%	0%	85%	47%	31%	97%	0%
